Test systems include CAKI-1 renal; COLO 205 colon; HL-60(TB) leukemia; KM12 colon; NCI-H522 lung; OVCAR-4 ovarian; PC-3 prostate; SF-539 CNS; SK-MEL-2 melanoma; SR leukemia.
Assay in all cases: NCI-60 cell line screen, 48 h

Structures are written as SMILES.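 Five compound concentrations were applied to cells in 96-well plates for 48 hours; endpoints were derived by simple linear interpolation of the resulting dose-response curve. Definition used: TGI = concentration required for complete inhibition of growth.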

Turning to `C1CCCCC2(CCCCCCCCC3(CCC1)SCCS3)SCCS2`, the TGI in the experiment with CAKI-1 renal, in the experiment with COLO 205 colon, in the experiment on HL-60(TB) leukemia, with KM12 colon, in the experiment on NCI-H522 lung and in the experiment on OVCAR-4 ovarian was over 100 µM throughout. The TGI with PC-3 prostate, with SF-539 CNS, with SK-MEL-2 melanoma and in the experiment on SR leukemia was over 100 µM throughout.

`O=C1CCCC/C1=C\c1ccc([N+](=O)[O-])cc1`: the TGI is 35.7 µM with CAKI-1 renal; 32.3 µM with COLO 205 colon; over 100 µM with HL-60(TB) leukemia; 38.4 µM in the experiment on KM12 colon; 30.2 µM with NCI-H522 lung; 53.1 µM in the experiment with OVCAR-4 ovarian. Moreover, the TGI in the experiment with PC-3 prostate is 4.46 µM; in the experiment with SF-539 CNS it was 43.3 µM; in the experiment with SK-MEL-2 melanoma, 46 µM; with SR leukemia, over 100 µM.

For the compound `Cn1c(=Nc2ccc(Cl)cc2)sc2ccccc21`, the TGI is over 100 µM with CAKI-1 renal; 81.3 µM in the experiment on COLO 205 colon; over 100 µM in the experiment on HL-60(TB) leukemia; over 100 µM in the experiment on KM12 colon; 35 µM in the experiment on NCI-H522 lung; over 100 µM with OVCAR-4 ovarian. For the same compound, the TGI with PC-3 prostate, with SF-539 CNS, in the experiment on SK-MEL-2 melanoma and in the experiment on SR leukemia was over 100 µM in each case.

For the compound `Cc1nc2ccc(S(=O)(=O)NS(=O)(=O)c3ccc(-c4ccccc4)cc3)cc2c(=O)n1NS(=O)(=O)c1ccc(-c2ccccc2)cc1`, the TGI with CAKI-1 renal, in the experiment on COLO 205 colon, with HL-60(TB) leukemia, in the experiment with KM12 colon, in the experiment on NCI-H522 lung and in the experiment on OVCAR-4 ovarian was over 100 µM in each case. The TGI in the experiment with PC-3 prostate, in the experiment on SF-539 CNS, in the experiment with SK-MEL-2 melanoma and in the experiment on SR leukemia was over 100 µM each time.

Regarding `COc1ccc(-c2c(-c3ccccc3)c(C)c3ccccn23)cc1`, the TGI with CAKI-1 renal, with COLO 205 colon, in the experiment with HL-60(TB) leukemia, in the experiment with KM12 colon, in the experiment with NCI-H522 lung and in the experiment with OVCAR-4 ovarian was over 100 µM in each case. The TGI with PC-3 prostate, with SF-539 CNS, in the experiment on SK-MEL-2 melanoma and in the experiment with SR leukemia was over 100 µM each time.

On to `C=C1C[C@@H](O)[C@@H](Br)C(C)(C)[C@@]12C=CC(=O)CC2`, for which the TGI in the experiment on CAKI-1 renal was over 100 µM; in the experiment on COLO 205 colon, 4.34 µM; in the experiment on HL-60(TB) leukemia it was over 100 µM; in the experiment on KM12 colon it was 5.31 µM; with NCI-H522 lung, over 100 µM; in the experiment with OVCAR-4 ovarian, over 100 µM. Besides, the TGI in the experiment with PC-3 prostate is 7.97 µM; in the experiment with SF-539 CNS, over 100 µM; with SK-MEL-2 melanoma, over 100 µM; in the experiment with SR leukemia it was over 100 µM.

Turning to `CCOC(=O)C(=CNc1ccc(N(C2=NCC(C)S2)c2ccc(F)c(Cl)c2)cc1)C(=O)OCC` (stereo not given), the TGI is over 100 µM in the experiment on CAKI-1 renal; 33.3 µM in the experiment with COLO 205 colon; 52.9 µM in the experiment with HL-60(TB) leukemia; 33.6 µM in the experiment with KM12 colon; 30.3 µM in the experiment with NCI-H522 lung; 65.3 µM with OVCAR-4 ovarian. In addition, the TGI was determined as 50.9 µM in the experiment with PC-3 prostate, 46.4 µM with SF-539 CNS, 43.7 µM with SK-MEL-2 melanoma and 43.1 µM in the experiment on SR leukemia.

Regarding `COc1cc(/C=C2\C[C@H]3[C@@H]4CCC5=CC(=O)CC[C@]5(C)[C@H]4CC[C@]3(C)C2=O)cc(OC)c1OC`, the TGI in the experiment with CAKI-1 renal is over 65.2 µM; with COLO 205 colon it was over 60.6 µM; in the experiment with HL-60(TB) leukemia, 7.55 µM; with KM12 colon, over 37.2 µM; in the experiment with NCI-H522 lung, over 100 µM; in the experiment on OVCAR-4 ovarian it was over 59.7 µM. Moreover, the TGI with PC-3 prostate was over 43.2 µM; with SF-539 CNS, over 100 µM; with SK-MEL-2 melanoma it was over 59.8 µM; with SR leukemia, over 100 µM.

On to `O=C(Cn1cc(Br)c(=O)[nH]c1=O)c1ccc(-c2ccccc2)cc1`, for which the TGI in the experiment with CAKI-1 renal was over 41.8 µM; in the experiment on COLO 205 colon it was over 49.6 µM; in the experiment on HL-60(TB) leukemia, over 35.1 µM; with KM12 colon, over 26.3 µM; with NCI-H522 lung, over 13.9 µM; in the experiment with OVCAR-4 ovarian, over 100 µM. For the same compound, the TGI with PC-3 prostate is over 45.9 µM; with SF-539 CNS, over 19.8 µM; in the experiment on SK-MEL-2 melanoma, over 17.3 µM; in the experiment with SR leukemia, over 100 µM.

In the case of `c1ccc2cc3c(NC4=NCCO4)cccc3cc2c1`, the TGI was over 100 µM in the experiment on CAKI-1 renal; over 100 µM in the experiment on COLO 205 colon; 52.1 µM in the experiment with HL-60(TB) leukemia; over 100 µM in the experiment on KM12 colon; over 100 µM with NCI-H522 lung; over 100 µM in the experiment on OVCAR-4 ovarian. In addition, the TGI with PC-3 prostate, with SF-539 CNS, in the experiment on SK-MEL-2 melanoma and in the experiment on SR leukemia was over 100 µM in each case.

Consider `COc1ccc(-c2oc3cc(OC)c(OC)c(O)c3c(=O)c2OC)cc1`, for which the TGI in the experiment on CAKI-1 renal, in the experiment on COLO 205 colon, with HL-60(TB) leukemia, with KM12 colon, in the experiment with NCI-H522 lung and in the experiment on OVCAR-4 ovarian was over 100 µM in each case. Further, the TGI in the experiment on PC-3 prostate, in the experiment on SF-539 CNS, with SK-MEL-2 melanoma and in the experiment on SR leukemia was over 100 µM in each case.

As to `Nc1ccccc1C#CC(=O)c1cccc(C(F)(F)F)c1`, the TGI in the experiment with CAKI-1 renal came out at 13.5 µM; in the experiment with COLO 205 colon, 3.87 µM; in the experiment on HL-60(TB) leukemia, 41.1 µM; in the experiment on KM12 colon it was 82.1 µM; in the experiment with NCI-H522 lung it was 2.36 µM; in the experiment on OVCAR-4 ovarian, 5.51 µM. In addition, the TGI in the experiment with PC-3 prostate is 12 µM; with SF-539 CNS, 10.9 µM; in the experiment with SK-MEL-2 melanoma it was 2.54 µM; in the experiment on SR leukemia it was over 100 µM.

For `C[C@@H](C[C@H]1OC(C)(C)O[C@@H]1C(C)(C)O)[C@H]1CC=C2[C@]3(C)[C@H](O)C[C@H]4C(C)(C)[C@H](O)CC[C@]4(C)[C@H]3CC[C@]21C`, the TGI came to 19.5 µM with CAKI-1 renal; 10.5 µM with COLO 205 colon; 7.88 µM with HL-60(TB) leukemia; 16 µM with KM12 colon; 20.9 µM in the experiment on NCI-H522 lung; 26.2 µM with OVCAR-4 ovarian. Besides, the TGI in the experiment on PC-3 prostate worked out at 14.6 µM; in the experiment with SF-539 CNS it was 17.2 µM; in the experiment on SK-MEL-2 melanoma, 24.7 µM; in the experiment on SR leukemia, 11.3 µM.

Values taken from PubChem BioAssay (NCI).
